From patent publication US5013722A, “Cholecystokinin analogs for controlling appetite” (Hoffmann-LaRoche Inc., priority 1989, dated 1991)
pIC50: −log10 of the molar value. Where a SMILES comes first, the peptide text is derived from it. [ ]: non-standard residue; d: D form. The star is where a group is joined. Thr(SO3H) = C[C@@H](OS(=O)(=O)O)[C@H](N)C(=O)O; sY = N[C@@H](Cc1ccc(OS(=O)(=O)O)cc1)C(=O)O; N(CH2CH2NHAc)Gly = CC(=O)NCCNCC(=O)O; NMeF = CN[C@@H](Cc1ccccc1)C(=O)O; Nle = CCCC[C@H](N)C(=O)O; For = O=C*

Columns and labels:
[1] = test system: Male Sprague-Dawley (CD) rats, food intake; experiment: Two-meal feeding assay, intraperitoneal administration; format: in vivo, rat
Experimental: Male Sprague-Dawley (CD) rats weighing 180-200 grams (Charles River Breeding Laboratories) were acclimated to a 12 h light/dark cycle (6 a.m. to 6 p.m.) in a room kept at 22° C. They were subsequently fasted for two days, weighed, placed in individual cages, and a four-day period of meal training was begun. During this time the rats were given ground laboratory chow (Purina Lab Chow) in jars for one hour from 9:00 a.m. until 10:00 a.m., the jars were removed from 10:00 a.m. to 12:00 p.m., and placed back in the cages from 12:00 until 1:00 p.m. Under this `1-2-1` meal feeding regime most rats learn to eat approximately as much Per day during the two hours they have access to food as rats which have food ad libitum over the entire 24-hour day. On the fourth day, the rats were weighed again, and any which lost more than five grams body weight were excluded from the test. The animals were then distributed into experimental (n=5 to 6) and control groups (n=6-12). but not matched for body weight.
Peptides of the invention were suspended either in saline. if soluble, or in 1% gum arabic, if insoluble, at concentrations of 0 to 320 μg/ml/kg body weight and were administered intraperitonerally 15 min before the first meal on day 5 of meal feeding. The rats were then given their meals as they had been during the previous four days, and the food cups were weighed both before and after each meal to determine food consumption. Food intake was expressed as a mean and standard error of the mean in grams consumed or as a percent of control values for the various groups. The treated groups were compared to the control groups by t-test analysis. […]

[2] = molecular target: T1, receptors in rat pancreas (3H-CCK-8-(SO3 H) binding) (Rattus norvegicus, UniProt P30551); experiment: In vitro receptor binding assay, rat pancreas homogenate, 3H-CCK-8-(SO3H) radioligand; details: 0.15 nM radioligand, 30 min, 25° C.; read-out: Rat Pancreas IC50 (inhibition of specific 3H-CCK-8-(SO3H) binding)
T1 construct: receptors in homogenized preparations of rat pancreatic cells and bovine striata; from tissue; host or cells: rat pancreas homogenate (48,000 x g pellet)
T1 sequence (P30551 1-444): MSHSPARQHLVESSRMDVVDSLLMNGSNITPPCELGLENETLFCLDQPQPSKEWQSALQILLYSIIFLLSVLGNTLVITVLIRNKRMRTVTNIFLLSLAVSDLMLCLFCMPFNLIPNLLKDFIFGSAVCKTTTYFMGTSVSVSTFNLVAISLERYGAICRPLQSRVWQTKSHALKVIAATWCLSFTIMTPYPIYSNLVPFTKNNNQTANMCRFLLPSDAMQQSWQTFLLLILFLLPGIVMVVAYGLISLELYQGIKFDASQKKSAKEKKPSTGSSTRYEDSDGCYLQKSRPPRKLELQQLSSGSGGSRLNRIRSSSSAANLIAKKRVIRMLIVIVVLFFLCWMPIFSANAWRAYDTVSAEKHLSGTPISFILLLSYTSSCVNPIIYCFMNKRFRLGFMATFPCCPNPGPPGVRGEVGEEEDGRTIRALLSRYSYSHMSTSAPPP
Experimental: This strategy was utilized to minimize central nervous system side effects by identifying peptides with peripheral receptor selectivity. […] The tissue was homogenized 2 x for approx. 15 sec. at 0° C. using a Polytron homogenizer at a setting of 6. The tissue was isolated by centrifugation at 48,000 x g for 10 min. at 0° C. […] Samples were incubated for 30 min. at 25° C. and the incubation terminated by pouring the mixture onto a pre-wet Whatman GF/B filter on a Sandbeck Vacuum Filtration Manifold. The incubation tubes were washed with 2×3 ml of ice-cold HEPES Buffer #2 and the wash filtered through the GF/B filter. The filter was air dried for 10 min. and then placed in a scintillation vial with 12 ml of Beckman HP/b Ready-Solv scintillation cocktail. The vials were shaken for 2 hours and then counted using a Beckman Model 7800 liquid scintillation spectrometer.

[3] = molecular target: T2, receptors in bovine striatum (3H-CCK-8-(SO3 H) binding, central receptor) (Bos taurus, UniProt P79266); experiment: In vitro receptor binding assay, bovine striatum homogenate, 3H-CCK-8-(SO3H) radioligand; details: 0.15 nM radioligand, 30 min, 25° C.; read-out: Bovine Striatum IC50 (inhibition of specific 3H-CCK-8-(SO3H) binding)
T2 construct: receptors in homogenized preparations of rat pancreatic cells and bovine striata; from tissue; host or cells: bovine striatum homogenate (48,000 x g pellet)
T2 sequence (P79266 1-454): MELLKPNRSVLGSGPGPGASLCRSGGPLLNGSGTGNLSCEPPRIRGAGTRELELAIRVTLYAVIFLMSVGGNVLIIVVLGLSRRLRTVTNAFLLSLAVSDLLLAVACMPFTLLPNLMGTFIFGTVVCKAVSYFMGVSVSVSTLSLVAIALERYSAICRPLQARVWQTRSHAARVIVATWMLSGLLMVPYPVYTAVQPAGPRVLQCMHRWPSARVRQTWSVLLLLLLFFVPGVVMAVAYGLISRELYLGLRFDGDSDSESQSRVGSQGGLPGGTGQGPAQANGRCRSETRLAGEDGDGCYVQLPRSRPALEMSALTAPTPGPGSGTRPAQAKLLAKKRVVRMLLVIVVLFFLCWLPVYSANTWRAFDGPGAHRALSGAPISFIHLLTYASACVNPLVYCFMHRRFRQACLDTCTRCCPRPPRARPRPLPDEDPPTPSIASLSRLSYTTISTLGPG
Experimental: Frozen bovine striatum (approx. 5 g) and fresh rat pancreas (approx. 5 g) cleaned of fat and extraneous tissue were homogenized in HEPES buffer #1 (10 mM HEPES+130 mM NaCl+5 mM MgCl2. pH 7.4) using 35 parts buffer per 1 part tissue on a wet weight/volume basis (approx. 175 ml). The tissue was homogenized 2 x for approx. 15 sec. at 0° C. using a Polytron homogenizer at a setting of 6. The tissue was isolated by centrifugation at 48,000 x g for 10 min. at 0° C. The resulting tissue pellet was resuspended in HEPES buffer #2 (10 mM HEPES+130 mM NaCl+5 mM MgCl2 +1 mg/L phenylmethanesulfonyl fluoride (PMSF)+200 mg/L Bacitracin): 1 part striatal tissue (original wet weight) per 80 parts buffer and 1 part pancreas tissue (original wet weight) per 70 parts buffer.
Incubation was initiated by combining various concentrations of native CCK-8 or peptides of formula I, II and III with ^3 H-CCK-8-(SO3 H) (final conc.=0.15 nM) and tissue homogenate (striatum 0.26 mg protein in 2 ml final volume; pancreas 0.165 mg protein in 1 ml final volume). Samples were incubated for 30 min. at 25° C. and the incubation terminated by pouring the mixture onto a pre-wet Whatman GF/B filter on a Sandbeck Vacuum Filtration Manifold. The incubation tubes were washed with 2×3 ml of ice-cold HEPES Buffer #2 and the wash filtered through the GF/B filter. The filter was air dried for 10 min. and then placed in a scintillation vial with 12 ml of Beckman HP/b Ready-Solv scintillation cocktail. The vials were shaken for 2 hours and then counted using a Beckman Model 7800 liquid scintillation spectrometer. Non-specific binding was determined in the presence of 1 micromole native CCK-8 and subtracted from all samples to determine specific binding. The concentration of ^3 peptide necessary to inhibit 50% of total specific H-CCK-8-(SO3 H) binding (IC50 value) was determined by log-probit analysis.

[4] = 32 microgm/Kg i.p., 15 min before first meal, mean ± SEM

| Structure (SMILES) | Food Intake 1st Meal [1, 4] | Food Intake 2nd Meal ([1]; 32 microgm/Kg i.p., mean ± SEM) | pIC50 [2] | pIC50 [3] | also measured |
| --- | --- | --- | --- | --- | --- |
| CSCC[C@H](NC(=O)[C@H](Cc1ccc(OS(=O)(=O)O)cc1)NC(=O)CNCCNC(C)=O)C(=O)NCC(=O)N[C@@H](Cc1cn(C=O)c2ccccc12)C(=O)N[C@@H](CCSC)C(=O)N[C@H](C(=O)N(C)[C@@H](Cc1ccccc1)C(N)=O)[C@@H](C)OS(=O)(=O)O [Example 7, Ac-Aeg-Tyr(SO3 H)-Met-Gly-Trp(For)-Met-Thr(SO3 H)-N-methyl-Phe-NH2] (H-[N(CH2CH2NHAc)Gly][sY]MGW(For)M[Thr(SO3H)][NMeF]-NH2) | 17 ± 9 % of Control | 95 ± 16 % of Control | – | – | – |
| CSCC[C@H](NC(=O)[C@H](Cc1ccc(OS(=O)(=O)O)cc1)NC(C)=O)C(=O)NCC(=O)N[C@@H](Cc1cn(C=O)c2ccccc12)C(=O)N[C@@H](CCSC)C(=O)N[C@H](C(=O)N(C)[C@@H](Cc1ccccc1)C(N)=O)[C@@H](C)OS(=O)(=O)O [Example 1, Ac-Tyr(SO3 H)-Met-Gly-Trp(For)-Met-Thr(SO3 H)-N-methyl-Phe-NH2] (Ac-[sY]MGW(For)M[Thr(SO3H)][NMeF]-NH2) | 23 ± 13 % of Control | 55 ± 10 % of Control | 8.03 | 6.00 | – |
| CSCC[C@H](NC(=O)[C@H](Cc1ccc(OS(=O)(=O)O)cc1)NC(C)=O)C(=O)N[C@@H](C)C(=O)N[C@@H](Cc1cn(C=O)c2ccccc12)C(=O)N[C@@H](CCSC)C(=O)N[C@H](C(=O)N(C)[C@@H](Cc1ccccc1)C(N)=O)[C@@H](C)OS(=O)(=O)O [Example 5, Ac-Tyr(SO3 H)-Met-Ala-Trp(For)-Met-Thr(SO3 H)-N-methyl-Phe-NH2] (Ac-[sY]MAW(For)M[Thr(SO3H)][NMeF]-NH2) | 70 ± 2 % of Control | 133 ± 9 % of Control | 5.38 | 5.39 | – |
| CSCC[C@H](NC(=O)[C@H](Cc1ccc(OS(=O)(=O)O)cc1)NC(C)=O)C(=O)N[C@@H](C)C(=O)N[C@@H](Cc1c[nH]c2ccccc12)C(=O)N[C@@H](CCSC)C(=O)N[C@H](C(=O)N(C)[C@@H](Cc1ccccc1)C(N)=O)[C@@H](C)OS(=O)(=O)O [Example 6, Ac-Tyr(SO3 H)-Met-Ala-Trp-Met-Thr(SO3 H)-N-methyl-Phe-NH2] (Ac-[sY]MAWM[Thr(SO3H)][NMeF]-NH2) | 14 ± 6 % of Control | 114 ± 9 % of Control | 7.00 | 5.76 | – |
| CSCC[C@H](NC(=O)[C@H](Cc1c[nH]c2ccccc12)NC(=O)CNC(=O)[C@H](Cc1ccc(OS(=O)(=O)O)cc1)NC(C)=O)C(=O)N[C@H](C(=O)N(C)[C@@H](Cc1ccccc1)C(N)=O)[C@@H](C)OS(=O)(=O)O [Example 14, Ac-Tyr(SO3 H)-Gly-Trp-Met-Thr(SO3 H)-N-methyl-Phe-NH2] (Ac-[sY]GWM[Thr(SO3H)][NMeF]-NH2) | 36 ± 8 % of Control | 141 ± 9 % of Control | – | – | Food Intake 1st Meal ([1]; 3 microgm/Kg i.p.): 86 ± 16 % of Control; Food Intake 2nd Meal ([1]; 3 microgm/Kg i.p.): 120 % of Control; Food Intake 1st Meal ([1]; 320 microgm/Kg i.p.): 4 ± 5 % of Control; Food Intake 2nd Meal ([1]; 320 microgm/Kg i.p.): 121 ± 3 % of Control |
| CCCC[C@H](NC(=O)[C@H](Cc1ccc(OS(=O)(=O)O)cc1)NC(C)=O)C(=O)N[C@H](C)C(=O)N[C@@H](Cc1c[nH]c2ccccc12)C(=O)N[C@@H](CCSC)C(=O)N[C@H](C(=O)N(C)[C@@H](Cc1ccccc1)C(N)=O)[C@@H](C)OS(=O)(=O)O [Example 4, Ac-Tyr(SO3 H)-Nle-(D)Ala-Trp-Met-Thr(SO3 H)-n-Methyl-Phe-NH2] (Ac-[sY][Nle][dA]WM[Thr(SO3H)][NMeF]-NH2) | 5 ± 5 % of Control | 79 ± 13 % of Control | 7.36 | 7.00 | – |
| CCCC[C@H](NC(=O)[C@H](Cc1ccc(OS(=O)(=O)O)cc1)NC(C)=O)C(=O)NCC(=O)N[C@@H](Cc1c[nH]c2ccccc12)C(=O)N[C@@H](CCCC)C(=O)N[C@H](C(=O)N(C)[C@@H](Cc1ccccc1)C(N)=O)[C@@H](C)OS(=O)(=O)O [Example 13, Ac-Tyr-(SO3 H)-Nle-Gly-Trp-Nle-Thr(SO3 H)-N-methyl-Phe-NH2] (Ac-[sY][Nle]GW[Nle][Thr(SO3H)][NMeF]-NH2) | 21 ± 12 % of Control | 52 ± 13 % of Control | – | – | Food Intake 1st Meal ([1]; 1 microgm/Kg i.p.): 36 ± 4 % of Control; Food Intake 2nd Meal ([1]; 1 microgm/Kg i.p.): 71 ± 13 % of Control; Food Intake 1st Meal ([1]; 3 microgm/Kg i.p.): 23 ± 13 % of Control; Food Intake 2nd Meal ([1]; 3 microgm/Kg i.p.): 59 ± 6 % of Control; Food Intake 1st Meal ([1]; 10 microgm/Kg i.p.): 13 ± 1 % of Control; Food Intake 2nd Meal ([1]; 10 microgm/Kg i.p.): 62 ± 8 % of Control; Food Intake 1st Meal ([1]; 16 microgm/Kg i.p.): 27 ± 17 % of Control; Food Intake 2nd Meal ([1]; 16 microgm/Kg i.p.): 45 ± 11 % of Control |
